Assay results published in patent US12427137B2, “Method for reducing methane production in animal stomach” (CHINA AGRICULTURAL UNIVERSITY, priority 2022, dated 2025).
Marks after values point to notes of the source that are not given here.

What was measured:
[1] = Melatonin concentration in rumen fluids of cows fed with melatonin; type: in vivo; settings: cows fed 15 mg/kg/day, days 7 to 21, FIG. 2
Experimental: (§1) In vivo experiment: twenty lactating cows with similar ages and body conditions were selected and randomly divided into two groups, a control group (fed with digestible paper only) and a melatonin-fed group (fed with melatonin wrapped in digestible paper, 15 mg/kg/day). Each group had 10 cows. The cows were fed every morning after milking. The treatment lasted for 21 days. The rumen fluids were collected with rumen collection tubes before the morning feeding on days 0, 7, 14 and 21, respectively. The concentrations of melatonin in the rumen fluids were measured by liquid chromatography tandem mass spectrometry (LC-MS/MS). The breathing gas of the cows was collected by a breathing gas collection system to detect the methane content therein. Meanwhile, the information (e.g., the health condition and milk quality) of the cows was also recorded to monitor the influence of the feeding experiment on the dairy production.
Twenty lactating cows with similar ages and body conditions were selected and randomly divided into two groups, a control group (CON, fed with digestible paper only) and a melatonin-fed group (MT, fed with melatonin wrapped in digestible paper). Each group had 10 cows. […] And the melatonin contents in the rumen fluids were determined by […]. […]

[2] = test system: rumen fluids (in vitro rumen fluid fermentation); assay: Volatile fatty acids (VFAs) from the in vitro rumen fluid fermentation, gas chromatography; type: cell-based, cows; settings: 10^−3 mol/L melatonin, 48 h
Experimental: Rumen microorganisms can degrade plant fibers and produce VFAs, which in turn provide energy substances to the hosts. Thus, we analyzed the production of VFAs from the in vitro fermentation system. Based on the above experiments, we determined to in vitro treat the rumen fluids with 10^−3 mol/L of melatonin solution for 48 h. The levels of six VFAs (i.e., acetate (A), propionate (P), butyrate (B), isobutyrate, valerate and isovalerate), were detected in the in vitro rumen fluid fermentation solution by gas chromatography. […] In the rumens of ruminant animals, CO2 and H2 are mainly produced during the conversion of pyruvate into acetate and butyrate in glycolysis, and glucose can be generated from propionate. The A/P ratios of the two groups were compared, 3.00 for the control group and 3.372 for the melatonin group.

rumen microbial flora = assay: Microorganism compositions of the in vitro rumen fermentation system (Alpha diversity, differential species analysis); type: cell-based, cows
Experimental: Alpha diversity can reflect the abundance and diversity of microbial flora. […] In order to clarify the species classification information of the microbial flora, the cluster analysis was performed to generate OTUs. FIGS. 5E-5F show the cluster diagram of the annotations at order level. […] There were significant differences in the relative abundance of Clostridiales, Bacteroides, Monadales, Desulfovibrionales and the like. The abundance of the microbial flora (e.g. Prevotella spp. and Succiniclasticum spp.) producing propionate and butyrate decreased, while the abundance of the microbial flora (e.g., Bifidobacterium) producing acetate increased. […] Each circle represents a species at the specific taxonomic level, and the size of the circle is positively correlated with the relative abundance of the species. The species with no significant differences are uniformly colored yellow, and the biomarkers for the species with differences are indicated with the color of the corresponding group.

[3] = test system: archaea / methanogenic genera of the rumen microbial flora; assay: Metagenome sequencing of in vitro fermentation rumen fluids (archaea); type: cell-based, cows; settings: melatonin treatment vs control, FIG. 7B
Experimental: Metagenome sequencing was performed in order to further study the changes in the rumen microbial flora. In addition to the analysis of the gene table, the metagenome sequencing can also analyze the microbial compositions of the samples. Thus, it can obtain more information on the species, including phages, viruses, fungi, archaea and the like, other than bacteria. […] Due to the discovery of the methane-reducing effect of melatonin, we focused on the changes of archaea. 72 species archaea species, which had different abundance between the control and melatonin groups, were screened. […] Thus, melatonin can reduce the methane production by reducing the abundance of most methanogenic microbial flora.

lactating cows = assay: Methane content in respiratory gases of cows fed with melatonin; type: in vivo; settings: fed 15 mg/kg/day
Experimental: as §1, with “production. Lactating cows were fed with melatonin powder of 15 mg/kg/day for 21 days. The respiratory gases were collected from each group at days 0, 7, 14 and 21 by using a respiratory gas collection system. The methane contents in the gases were detected by gas chromatography. […] In addition, this effect can be maintained for a longer period of time.” for “production.”

[4] = test system: rumen fluids of cows (in vitro rumen fermentation system); assay: In vitro fermentation of rumen fluids of cows, methane content by gas chromatography; type: cell-based; settings: for methane production of the in vitro rumen fermentation system: FIG. 1
From the text: Rumen fluids were collected from fistulated cows before morning feeding, filtered through 4 layers of gauze, and then brought back to the laboratory by placing in a thermos flask. The experiment comprised a control group (CON) and melatonin groups (MT: 10^−3 mol/L, 10^−5 mol/L, 10^−7 mol/L). The cattle farm Total Mixed Rations (TMR) was used as the fermentation substrate, and artificial saliva was used as the matrix. Oxygen in the fermentation flasks was replaced with nitrogen. Then, the rumen fluids were incubated anaerobically at 39° C. in an incubator, which was connected to a gas bag to collect the fermentation gas. The methane content in the gas bag was detected by gas chromatography. In vitro experiment: melatonin was added during the in vitro simulation of rumen fermentation. The in vitro rumen fermentation system of 75 mL in each bottle comprises 0.5 g TMR powder, 50 mL of artificial saliva and 25 mL of filtered rumen fluid. The 10^−3 mol/L, 10^−5 mol/L and 10^−7 mol/L melatonin groups (melatonin dissolved in a small amount of DMSO and diluted to these concentrations with saline) and a control group (only solvent, i.e., a small amount of DMSO+saline) were set up separately. For each group, the samples were collected at the fermentation times 2 h, 4 h, 8 h, 24 h and 48 h. Three replicates were set for each sample. After fermenting anaerobically at 39° C., the gas bags and fermentation liquid were collected. Gas chromatography was used to detect the methane content in the gas of the gas bags. The obtained data were analyzed by one-way analysis of variance (One Way ANOVA) by means of SPSS® (Statistical Product and Service Solutions) statistical software. p<0.05 indicated significant difference and p<0.01 indicated extremely significant difference. The DunCan test was used for multiple comparisons. The results were expressed as means±SEM. Addition form I: adding melatonin powder (MT p) directly to the fermentation system to a final concentration of 2×10−3 mol/L. Addition form II: adding concentrated melatonin solution (MT s) of 10^−3 mol/L at 0 h and 24 h respectively.

melatonin concentrations in the rumen fluids [1]: significantly increased
Compound: COc1ccc2[nH]cc(CCNC(C)=O)c2c1 [melatonin]
level of acetic acid in rumen fluids ([2]; FIG. 4): significantly reduced | level of propionic acid in rumen fluids ([2]; FIG. 4): significantly reduced | A/P ratio (acetate/propionate) ([2]; control group 3.00): 3.372 | abundance of the microbial flora producing acetate (e.g., Bifidobacterium) (rumen microbial flora; FIGS. 6A-6B): increased | abundance of the microbial flora producing propionate and butyrate (e.g. Prevotella spp. and Succiniclasticum spp.) (rumen microbial flora; FIGS. 6A-6B): decreased | diversity of rumen microbial flora (Alpha diversity) (rumen microbial flora; melatonin added to the fermentation system, FIGS. 5A-5D): increased | compositions of the microbial flora (relative abundance of orders Clostridiales, Bacteroides, Monadales, Desulfovibrionales) (rumen microbial flora; melatonin treatment, FIGS. 5E-5F): significant changes | abundance of most methanogenic genera (Halobacterium, Methanoplanus, Methanococcoides, Methanoculleus, Methanothrix spp.) [3]: reduced | methane production from the respiration of the cows (lactating cows; day 14, FIG. 3): decreased significantly | methane production from the respiration of the cows (lactating cows; day 21, FIG. 3): decreased to a similar extent as at day 14 | methane production from the respiration of the cows (lactating cows; from day 7, FIG. 3): decreased | methane production of the in vitro fermentation ([4]; 10^−3 mol/L, 48 h, vs control): significantly reduced | methane production of the rumen fermentation liquid ([4]; 10^−3 to 10^−7 mol/L, 4 h to 8 h): reduced | reduction of methane production as compared with the control group ([4]; 4 h, all concentrations of melatonin groups (10^−3 to 10^−7 mol/L)): about 15% | methane content (%) ([4]; MT 10^−3 mol/L, fermentation time 2 h): 0.99 ± 0.05% | methane content (%) ([4]; MT 10^−3 mol/L, fermentation time 4 h): 3.42 ± 0.13% | methane content (%) ([4]; MT 10^−3 mol/L, fermentation time 8 h): 4.43 ± 0.39% | methane content (%) ([4]; MT 10^−3 mol/L, fermentation time 24 h): 9.68 ± 0.07% | methane content (%) ([4]; MT 10^−3 mol/L, fermentation time 48 h): 10.79 ± 0.53^b % | methane content (%) ([4]; MT 10^−5 mol/L, fermentation time 2 h): 1.09 ± 0.06% | methane content (%) ([4]; MT 10^−5 mol/L, fermentation time 4 h): 3.47 ± 0.07% | methane content (%) ([4]; MT 10^−5 mol/L, fermentation time 8 h): 4.47 ± 0.39% | methane content (%) ([4]; MT 10^−5 mol/L, fermentation time 24 h): 10.4 ± 0.24% | methane content (%) ([4]; MT 10^−5 mol/L, fermentation time 48 h): 12.65 ± 0.45^a % | methane content (%) ([4]; MT 10^−7 mol/L, fermentation time 2 h): 1.03 ± 0.07% | methane content (%) ([4]; MT 10^−7 mol/L, fermentation time 4 h): 3.45 ± 0.05% | methane content (%) ([4]; MT 10^−7 mol/L, fermentation time 8 h): 5.16 ± 0.14% | methane content (%) ([4]; MT 10^−7 mol/L, fermentation time 24 h): 10.6 ± 0.44% | methane content (%) ([4]; MT 10^−7 mol/L, fermentation time 48 h): 11.25 ± 0.67^a % | methane production of the in vitro rumen fermentation system ([4]; addition form I: melatonin powder (MT p), final concentration 2×10−3 mol/L, 48 h): significantly reduced | methane production of the in vitro rumen fermentation system ([4]; addition form II: concentrated melatonin solution (MT s) of 10^−3 mol/L at 0 h and 24 h, 48 h): significantly reduced
